Reference: patent publication US20230142844A1, “USE OF 1,9-DECANEDIOL IN RETARDING UREA HYDROLYSIS” (INSTITUTION OF SOIL SCIENCE, CHINESE ACADEMY OF SCIENCES, priority 2021, published 2023)

Tested on: urea hydrolysis in soil
Assay: Soil culture test: effect of inhibitors applied with urea on urea hydrolysis (urea nitrogen and ammonia nitrogen contents in soil)
Settings: for contents of ammonia nitrogen in soil (NH4^+-N) / contents of urea nitrogen in soil (Urea-N): flooded paddy soil, 25° C.; for inhibition of urea hydrolysis during the culture period / effect on retarding the hydrolysis efficiency of urea: result in words; for effect on retarding the hydrolysis efficiency of urea: applied with urea to flooded paddy soil
Experimental: 1.1 experimental soil: the type of experimental soil is paddy soil, and the texture is sandy loam soil. It is collected from 0-20 cm topsoil of experimental field in Yingtan City, Jiangxi Province (28° 15′N, 116° 55′E). It is sieved by 2 millimeters (mm), mixed, and reserved.
1.2 test reagent: 1,9-decanediol is customized in market, and a structural formula thereof is C10H22O2. Nitrification inhibitor is dicyandiamide (DCD, a structural formula thereof is C2H4N4) is purchased from Sigma.
1.3 experimental treatment: experimental setting as follows: urea treatment (U); nitrification inhibitor DCD +urea treatment including: DCD-20 mg/kg soil; 1,9-decanediol+urea treatment in the soil including: 1,9-D-100 mg/kg, 1,9-D-200 mg/kg, 1,9-D-500 mg/kg, and 1,9-D-1000 mg/kg. Each treatment is repeated three times. The amount of nitrogen applied is […] nitrogen per kilogram soil.
After the experimental soil is weighed into 100 milliliters (mL) plastic pipe, distilled water is evenly added, and the soil water content is adjusted to 60% of the maximum field water capacity. Then the plastic pipe is sealed with sealing film and uniform holes are pricked to keep air flowing, and pre-cultured in a 25° C. incubator for three days.
After the pre-culture, according to the different experimental treatments, the corresponding urea and inhibitors (1,9-decanediol and DCD) are weighed to form a mixed solution, the mixed solution is evenly applied to soil, then distilled water is added to maintain a flooded state, and cultured at 25° C. […]. The contents of urea nitrogen and ammonia nitrogen in soil are measured on the 1st, 2nd, 3rd, 5th, and 7th days of culture to evaluate the effects of different inhibitors on nitrogen transformation.

[1] = 1,9-decanediol 100 mg/kg in soil + urea, 1 d of culture
[2] = 1,9-decanediol 100 mg/kg in soil + urea, 2 d of culture
[3] = 1,9-decanediol 100 mg/kg in soil + urea, 3 d of culture
[4] = 1,9-decanediol 100 mg/kg in soil + urea, 5 d of culture
[5] = 1,9-decanediol 100 mg/kg in soil + urea, 7 d of culture
[6] = 1,9-decanediol 200 mg/kg in soil + urea, 1 d of culture
[7] = 1,9-decanediol 200 mg/kg in soil + urea, 2 d of culture
[8] = 1,9-decanediol 200 mg/kg in soil + urea, 5 d of culture
[9] = 1,9-decanediol 200 mg/kg in soil + urea, 7 d of culture
[10] = 1,9-decanediol 500 mg/kg in soil + urea, 1 d of culture
[11] = 1,9-decanediol 500 mg/kg in soil + urea, 2 d of culture
[12] = 1,9-decanediol 500 mg/kg in soil + urea, 3 d of culture
[13] = 1,9-decanediol 500 mg/kg in soil + urea, 5 d of culture
[14] = 1,9-decanediol 500 mg/kg in soil + urea, 7 d of culture
[15] = 1,9-decanediol 1000 mg/kg in soil + urea, 1 d of culture
[16] = 1,9-decanediol 1000 mg/kg in soil + urea, 2 d of culture
[17] = 1,9-decanediol 1000 mg/kg in soil + urea, 3 d of culture
[18] = 1,9-decanediol 1000 mg/kg in soil + urea, 5 d of culture
[19] = 1,9-decanediol 1000 mg/kg in soil + urea, 7 d of culture
[20] = DCD 20 mg/kg soil + urea, 1 d of culture
[21] = DCD 20 mg/kg soil + urea, 2 d of culture
[22] = DCD 20 mg/kg soil + urea, 3 d of culture
[23] = DCD 20 mg/kg soil + urea, 5 d of culture
[24] = DCD 20 mg/kg soil + urea, 7 d of culture

For CC(O)CCCCCCCCO (stereo not drawn) [1,9-D, 1,9-decanediol], the “contents of ammonia nitrogen in soil (NH4^+-N)” value (“contents of ammonia nitrogen” for short) [1] was 171.9 ± 8.1a, the “contents of urea nitrogen in soil (Urea-N)” value (“contents of urea nitrogen” below) [1] was 10.1 ± 0.7c and the “contents of ammonia nitrogen” value [2] was 176.8 ± 1.2c. For the same compound, the “contents of urea nitrogen” value [2] was 3.7 ± 1.2cd, the “contents of ammonia nitrogen” value [3] was 197.7 ± 7.3ab and the “contents of urea nitrogen” value [3] was 3.4 ± 0.5 days. For the same compound, the contents of ammonia nitrogen in soil (NH4^+-N) [4] was 187 ± 8.5 mg/kg, the “contents of urea nitrogen” value [4] was 3.3 ± 0.2c and the “contents of ammonia nitrogen” value [5] was 221.7 ± 2.4ab. The “contents of urea nitrogen” value [5] was 2.9 ± 0.5bc, the “contents of ammonia nitrogen” value [6] was 150.8 ± 2.8b and the “contents of urea nitrogen” value [6] was 15.2 ± 0.1c. For the same compound, the “contents of ammonia nitrogen” value [7] was 173.7 ± 1.9c, the “contents of urea nitrogen” value [7] was 9.1 ± 0.51b and the “contents of ammonia nitrogen” value (1,9-decanediol 200 mg/kg in soil + urea, 3 d of culture) was 195 ± 9b. For the same compound, the “contents of ammonia nitrogen” value [8] was 213.9 ± 3.3ab, the “contents of urea nitrogen” value [8] was 2.8 ± 0.5c and the “contents of ammonia nitrogen” value [9] was 221.4 ± 4.4ab. For the same compound, the “contents of urea nitrogen” value [9] was 4.2 ± 1.4ab, the “contents of ammonia nitrogen” value [10] was 51 ± 1.1c and the “contents of urea nitrogen” value [10] was 115.6 ± 13b. For the same compound, the contents of ammonia nitrogen in soil (NH4^+-N) [11] was 160 ± 6.2 mg/kg, the “contents of urea nitrogen” value [11] was 11.7 ± 0.4b and the “contents of ammonia nitrogen” value [12] was 180.8 ± 6.3c. The “contents of urea nitrogen” value [12] was 10.5 ± 0.7b, the “contents of ammonia nitrogen” value [13] was 207.3 ± 2.1b and the “contents of urea nitrogen” value [13] was 6.1 ± 0.6a. The “contents of ammonia nitrogen” value [14] was 217.3 ± 3.3b, the “contents of urea nitrogen” value [14] was 3.4 ± 0.7bc and the “contents of ammonia nitrogen” value [15] was 46.3 ± 2.1c. For the same compound, the “contents of urea nitrogen” value [15] was 139 ± 7.2a, the “contents of ammonia nitrogen” value [16] was 92.9 ± 0.4e and the “contents of urea nitrogen” value [16] was 73.4 ± 3.8a. The contents of ammonia nitrogen in soil (NH4^+-N) [17] was 152 ± 1.4 mg/kg, the “contents of urea nitrogen” value [17] was 14.8 ± 1.7a and the “contents of ammonia nitrogen” value [18] was 196.7 ± 2c. The “contents of urea nitrogen” value [18] was 5 ± 0.5b, the “contents of ammonia nitrogen” value [19] was 203.2 ± 7c and the “contents of urea nitrogen” value [19] was 5.4 ± 0.5a. For the same compound, the “inhibition of urea hydrolysis during the culture period” value (addition of 500 mg/kg) was “can significantly inhibit the urea hydrolysis”, the “inhibition of urea hydrolysis during the culture period” value (addition of 1000 mg/kg) was “can significantly inhibit the urea hydrolysis” and the “effect on retarding the hydrolysis efficiency of urea” value was “can retard the hydrolysis efficiency of urea”. For the same compound, the “efficiencies of retarding urea hydrolysis from large to small” value (ranking of treatments (1,9-D 100-1000 mg/kg, DCD 20 mg/kg soil)) was 1, 9-D-1000>1, 9-D-500>1, 9-D-200>1, 9-D-100>DCD.

N#CN=C(N)N [DCD, dicyandiamide, reference compound] was tested, and the “contents of ammonia nitrogen” value [20] was 176.9 ± 5.5a, the “contents of urea nitrogen” value [20] was 4.5 ± 0.4c and the “contents of ammonia nitrogen” value [21] was 183.6 ± 4b. For the same compound, the “contents of urea nitrogen” value [21] was 1.6 ± 0.3 days, the “contents of ammonia nitrogen” value [22] was 203.1 ± 1.6ab and the “contents of urea nitrogen” value [22] was 1.4 ± 0.2e. The “contents of ammonia nitrogen” value [23] was 208.4 ± 1.6b, the “contents of urea nitrogen” value [23] was 1.2 ± 0.1 days and the “contents of ammonia nitrogen” value [24] was 217.9 ± 4.3b. The “contents of urea nitrogen” value [24] was 2.9 ± 0.4bc and the “effect on retarding the hydrolysis efficiency of urea” value was “no effect”.
